Assay results taken from PubChem BioAssay (NCI).
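Five concentrations, 48 hours, 96-well plates. Here, GI50 denotes the concentration required for 50% inhibition of growth. The concentration for full growth arrest is given as TGI.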

Experiments:
Experiment in all cases: DTP human tumour cell line panel, 48 h
[1] = test system: 786-0 renal
[2] = test system: A498 renal
[3] = test system: A549 NSCLC
[4] = test system: ACHN renal
[5] = test system: BT-549 breast
[6] = test system: CAKI-1 renal
[7] = test system: CCRF-CEM leukemia
[8] = test system: COLO 205 colon
[9] = test system: DU-145 prostate
[10] = test system: EKVX NSCLC
[11] = test system: HCC-2998 colon
[12] = test system: HCT-116 colon
[13] = test system: HCT-15 colon
[14] = test system: HL-60(TB) leukemia
[15] = test system: HOP-62 NSCLC
[16] = test system: HOP-92 NSCLC
[17] = test system: HS 578T breast
[18] = test system: HT29 colon
[19] = test system: IGROV1 ovarian
[20] = test system: K-562 leukemia
[21] = test system: KM12 colon
[22] = test system: LOX IMVI melanoma
[23] = test system: M14 melanoma
[24] = test system: MALME-3M melanoma
[25] = test system: MCF7 breast
[26] = test system: MDA-MB-231 breast
[27] = test system: MDA-MB-435
[28] = test system: MOLT-4 leukemia
[29] = test system: NCI-H226 lung
[30] = test system: NCI-H23 lung
[31] = test system: NCI-H460 lung
[32] = test system: NCI-H522 lung
[33] = test system: NCI/ADR-RES ovarian
[34] = test system: OVCAR-3 ovarian
[35] = test system: OVCAR-4 ovarian
[36] = test system: OVCAR-5 ovarian
[37] = test system: OVCAR-8 ovarian
[38] = test system: PC-3 prostate
[39] = test system: RPMI-8226 leukemia
[40] = test system: RXF 393 renal
[41] = test system: SF-268 CNS
[42] = test system: SF-295 CNS
[43] = test system: SF-539 CNS
[44] = test system: SK-MEL-2 melanoma
[45] = test system: SK-MEL-28 melanoma
[46] = test system: SK-MEL-5 melanoma
[47] = test system: SK-OV-3 ovarian
[48] = test system: SN12C renal
[49] = test system: SNB-19 CNS
[50] = test system: SNB-75 CNS
[51] = test system: SR leukemia
[52] = test system: SW-620 colon
[53] = test system: T-47D breast
[54] = test system: TK-10 renal
[55] = test system: U251 CNS
[56] = test system: UACC-257 melanoma
[57] = test system: UACC-62 melanoma
[58] = test system: UO-31 renal

In the case of `O=C(/C=C/c1ccccc1Cl)Nc1ncc(Cc2cc(Cl)ccc2Cl)s1`, the GI50 [1] is reported as 5.16 µM, the TGI [1] is reported as > 100 µM and the GI50 [2] is reported as 0.975 µM. For the same compound, the GI50 [3] was 2.09 µM, the TGI [3] was > 100 µM and the GI50 [4] was 8.28 µM. For the same compound, the TGI [4] was > 100 µM, the GI50 [5] was 1.15 µM and the TGI [5] was 8.4 µM. For the same compound, the GI50 [6] was 4.23 µM, the TGI [6] was > 100 µM and the GI50 [7] was 0.909 µM. The TGI [7] was > 100 µM, the GI50 [8] was 1.21 µM and the TGI [8] was > 31.7 µM. The GI50 [9] was 2.04 µM, the TGI [9] was > 100 µM and the GI50 [10] was 2.4 µM. The TGI [10] was > 100 µM, the GI50 [11] was 2.71 µM and the TGI [11] was > 100 µM. For the same compound, the GI50 [12] was 0.939 µM, the TGI [12] was > 100 µM and the GI50 [13] was 0.634 µM. For the same compound, the TGI [13] was > 100 µM, the GI50 [14] was 1.24 µM and the TGI [14] was 5.7 µM. The GI50 [15] was 6.14 µM, the TGI [15] was > 100 µM and the GI50 [16] was 1.3 µM. For the same compound, the GI50 [17] was 1.14 µM, the GI50 [18] was 2.46 µM and the TGI [18] was > 100 µM. The GI50 [19] was 1.31 µM, the TGI [19] was > 100 µM and the GI50 [20] was 0.406 µM. For the same compound, the TGI [20] was > 100 µM, the GI50 [21] was 1.21 µM and the TGI [21] was > 100 µM. The GI50 [22] was 1.85 µM, the TGI [22] was > 100 µM and the GI50 [23] was 2.04 µM. The TGI [23] was > 100 µM, the GI50 [24] was 4.54 µM and the TGI [24] was > 100 µM. The GI50 [25] was 0.674 µM, the TGI [25] was > 100 µM and the GI50 [26] was 2.66 µM. The TGI [26] was > 100 µM, the GI50 [27] was 0.263 µM and the TGI [27] was 0.79 µM. For the same compound, the GI50 [28] was 1.21 µM, the TGI [28] was > 100 µM and the GI50 [29] was 9.17 µM. For the same compound, the TGI [29] was > 100 µM, the GI50 [30] was 0.686 µM and the TGI [30] was > 100 µM. For the same compound, the GI50 [31] was 3.6 µM, the TGI [31] was > 100 µM and the GI50 [32] was 0.7 µM. The TGI [32] was 2.56 µM, the GI50 [33] was 2.99 µM and the TGI [33] was > 100 µM. The GI50 [34] was 3.44 µM, the TGI [34] was > 100 µM and the GI50 [35] was 21.3 µM. The TGI [35] was > 100 µM, the GI50 [36] was 2.36 µM and the TGI [36] was > 100 µM. For the same compound, the GI50 [37] was 4.03 µM, the TGI [37] was > 100 µM and the GI50 [38] was 3.86 µM. The TGI [38] was > 100 µM, the GI50 [39] was 1.36 µM and the TGI [39] was > 63.8 µM. It also gave a GI50 [40] of 0.916 µM, a TGI [40] of 3.46 µM and a GI50 [41] of 12.5 µM. The TGI [41] was > 100 µM, the GI50 [42] was 2.34 µM and the TGI [42] was 71.2 µM. The GI50 [43] was 2.79 µM, the TGI [43] was 13.6 µM and the GI50 [44] was 3.01 µM. For the same compound, the TGI [44] was > 100 µM, the GI50 [45] was 9.29 µM and the TGI [45] was > 100 µM. For the same compound, the GI50 [46] was 2.8 µM, the TGI [46] was > 100 µM and the GI50 [47] was 7.39 µM. For the same compound, the TGI [47] was > 100 µM, the GI50 [48] was 1.95 µM and the TGI [48] was > 100 µM. The GI50 [49] was 4.23 µM, the TGI [49] was > 100 µM and the GI50 [50] was 0.576 µM. For the same compound, the TGI [50] was 9.82 µM, the GI50 [51] was 0.534 µM and the TGI [51] was > 100 µM. For the same compound, the GI50 [52] was 1.25 µM, the TGI [52] was > 100 µM and the GI50 [53] was 6.72 µM. For the same compound, the TGI [53] was > 100 µM, the GI50 [54] was 7.13 µM and the TGI [54] was > 100 µM. For the same compound, the GI50 [55] was 2.9 µM, the TGI [55] was > 100 µM and the GI50 [56] was 9.11 µM. For the same compound, the TGI [56] was > 100 µM, the GI50 [57] was 3.27 µM and the TGI [57] was > 100 µM. For the same compound, the GI50 [58] was 6.52 µM and the TGI [58] was > 100 µM.
